Series [1] concerns Caenorhabditis elegans. Description: Toxicity in L1 stage Caenorhabditis elegans N2 assessed as viability and reproduction at 50 uM. In kind it is organism-based. As to conditions: in vivo.
For series [2], the system named is Caenorhabditis elegans. Nature of the series: Toxicity in L1 stage Caenorhabditis elegans N2 assessed as viability and reproduction at 10 uM. In kind it is organism-based. As to conditions: in vivo.
In series [3] the test system is MDA-MB-231. Description: Antiinvasive activity against human MDA-MB-231 cells assessed as inhibition of cell invasion at 15 uM after 24 hrs by BME Cell invasion assay kit. In kind it is functional.
Series [4] concerns MDA-MB-231. Description: Antimigratory activity in human MDA-MB-231 cells after 24 hrs by wound healing assay. In kind it is functional, cell-based. The note with it: MDA-MB-231, 24 h.
For series [5], the system named is MDA-MB-231. Description: Antiproliferative activity against human MDA-MB-231 cells after 72 hrs by MTT assay. In kind it is functional, cell-based. As to conditions: MDA-MB-231, 72 h. (Tetrazolium dyes change colour on reduction, which living cells bring about.)
The test system of a further series is MCF7. Nature of the series: Antiproliferative activity against human MCF7 cells after 72 hrs by MTT assay. In kind it is functional, cell-based. The note with it: MCF7, 72 h.

The structures appear in SMILES notation. Activity calls are given as the source filed them. The calls are words filed in the database; no cut-off is given here.

One may read the inhibition as the share of the control response that was lost under treatment. For orientation: IC50 means the concentration needed to halve the response being measured. Read a high IC50 as weaker potency in that assay. `C=C1Cc2ccc3[nH]c4c5c3c2[C@H]2[C@@H]1C[C@H]2C(C)(C)O[C@H]5[C@@H]1CC[C@@]2(O)C3=C[C@@H](O)[C@@H](C(=C)C)O[C@H]3CC[C@]2(C)[C@@]41C` [PENITREM D]: the Activity result in the series on Caenorhabditis elegans [1] and in the series on Caenorhabditis elegans [2] was “Non-toxic” in each case. Besides, in the series on MDA-MB-231 [3] (MDA-MB-231, 24 h), the inhibition at 15 µM stood at 50%. The half-maximal inhibitory concentration (IC50) worked out at 9.2 µM in the series on MDA-MB-231 [4], 29.7 µM in the series with MDA-MB-231 [5] and 8.3 µM in the series with MCF7.
Take `C=C1Cc2c(Cl)cc3[nH]c4c5c3c2[C@H]2[C@@H]1C[C@@H]2C(C)(C)O[C@H]5[C@@H]1CC[C@@]2(O)[C@@]35O[C@@H]3[C@@H](O)[C@@H](C(=C)C)O[C@H]5CC[C@]2(C)[C@@]41C` [PENITREM F]: the Activity result in the series on Caenorhabditis elegans [1] and with Caenorhabditis elegans [2] was “Non-toxic” throughout. The inhibition result in the series with MDA-MB-231 [3] is “inactive”. Moreover, the IC50 with MDA-MB-231 [4] stood at 35 µM; in the series on MDA-MB-231 [5], 13.8 µM; in the series with MCF7, 15 µM.
